Here are results for four compounds from patent publication US20250243192A1, “CRYSTALLINE FORM OF LANIFIBRANOR” (INVENTIVA, priority 2022, published 2025).

SMILES strings stand for the structures.

What all share (assay type): physicochemical
The nature of data set [1]: Competitive slurry tests (stability tests) in various solvents, solid analysed by PXRD. To be noted: room temperature; for Form(s) present T0: immediately after stirring was initiated. As for the experimental part: Competitive slurry tests were performed in various solvents such as acetone, ethanol, ethyl acetate, acetic acid, methyl ethyl ketone and methyl isobutyl ketone.
A saturated solution of lanifibranor form beta (as obtained in example 2) was prepared for each solvent. An equal amount of lanifibranor form alpha and lanifibranor form beta was introduced into a vial (50 mg+50 mg), and 250 μL of the saturated solution prepared beforehand (recovered by filtration through a 0.2 μm H-PTFE filter) were then added. The mixture was stirred at room temperature, samples of the solid were taken immediately after stirring was initiated and 24 hours after, and analyzed by PXRD to identify the solid form(s) present.

A short description of data set [2]: Compression tests, pellet analysed by PXRD. Conditions: 100 mg, 13 mm die, 10-Ton pressure for 15 minutes. As for the experimental part:
Compression tests were performed on the crystalline forms (alpha, beta) and on the amorphous form of lanifibranor. 100 mg of each sample were introduced between […] into a 13 mm die and subjected to a 10-Ton pressure for 15 minutes. The pellet obtained was then de-compacted and analysed by PXRD in order to monitor changes in the crystal structure of the sample.

Data set [3] is described as follows: Screening for solid forms of lanifibranor. An excerpt:
An amorphous form was further obtained.

Data set [4] can be described thus: Stability testing in accordance with EMA guidance (CPMP/ICH/2736/99), PXRD and DSC after storage. As for the experimental part: Lanifibranor form beta, as obtained in example 2, was submitted to stability testing in accordance with EMA guidance (CPMP/ICH/2736/99, last revised in August 2003); the drug substance was thus stored under the following conditions: • 6 months at 30° C./65° RH, • 6 months at 40° C./75% RH, and • 12 months at 25° C./60% RH.
At the end of each storage period, the drug substance was characterized by PXRD and by DSC.

Data set [5] in a line: Thermogravimetry (TGA) analysis. Conditions: temperature range 25-200° C. As for the experimental part:
TGA analysis was conducted on a Mettler Toledo TGA/DSC3+ thermogravimetric analyzer. Analyses were performed on a few milligrams of sample, in 100 µL sealed aluminum pans, punctured before analysis, under nitrogen flush at 50 mL/min. A temperature range between 25° C. and 300° C. was scanned at a 10° C./min rate.

Data set [6] can be described thus: Dynamic vapor sorption (DVS) analysis. To be noted: range 0% RH-95% RH, 25° C. How it is done: DVS analysis was conducted on a SMS DVS Intrinsic system. Analyses were performed on a few milligrams of sample, in open aluminum pans at 25° C. The stability criterion for each step was a weight change lower than 0.002% on a 5 min time frame. The time criterion for each step was 100 min (minimum duration by step: 10 min). Relative humidity was scanned between 0% RH and 95% RH with 10% RH steps (40-0-95-0-95).

Regarding `O=C(O)CCCc1cc2cc(Cl)ccc2n1S(=O)(=O)c1ccc2ncsc2c1` [1-(6-benzothiazolylsulfonyl)-5-chloro-1H-indole-2-butanoic acid], the “Form(s) present T0 + 24 h” value in data set [1] (acetic acid), in data set [1] (acetone), in data set [1] (ethanol), in data set [1] (ethyl acetate), in data set [1] (methyl ethyl ketone) and in data set [1] (methyl isobutyl ketone) was “form beta” throughout. Besides, the “Form(s) present T0” value in data set [1] (acetic acid), in data set [1] (acetone), in data set [1] (ethanol), in data set [1] (ethyl acetate), in data set [1] (methyl ethyl ketone) and in data set [1] (methyl isobutyl ketone) was “form alpha + form beta” each time.
`O=C(O)CCCc1cc2cc(Cl)ccc2n1S(=O)(=O)c1ccc2ncsc2c1` [amorphous form, 1-(6-benzothiazolylsulfonyl)-5-chloro-1H-indole-2-butanoic acid]: the “change in the solid form after compression (PXRD)” value (shortened to “change in the solid form”) in data set [2] is on record as “weak diffraction signals corresponding to form beta were detected after compression”. The “stability of the solid form upon handling/processing” value in data set [3] is “crystallize into form alpha or form beta even at low temperatures”.
`O=C(O)CCCc1cc2cc(Cl)ccc2n1S(=O)(=O)c1ccc2ncsc2c1` [lanifibranor form alpha, 1-(6-benzothiazolylsulfonyl)-5-chloro-1H-indole-2-butanoic acid]: the “change in the solid form” value in data set [2] is “additional signals that could correspond to peak shifts caused by a transformation to form beta”. For the same compound, in data set [3], the “stability of the solid form upon handling/processing” value is given as “did readily convert to the other form upon handling/processing”.
Turning to `O=C(O)CCCc1cc2cc(Cl)ccc2n1S(=O)(=O)c1ccc2ncsc2c1` [lanifibranor form beta, 1-(6-benzothiazolylsulfonyl)-5-chloro-1H-indole-2-butanoic acid], the “solid form stability on storage (PXRD and DSC)” value in data set [4] (6 months at 30° C./65° RH), in data set [4] (6 months at 40° C./75% RH) and in data set [4] (12 months at 25° C./60% RH) was “stable over long-term storage” in each case. Besides, in data set [2], the “change in the solid form” value is recorded as “no significant change in the solid form”. Further, the “stability of the solid form upon handling/processing” value in data set [3] is “more stable form”. Also, the “weight loss in TGA curve” value in data set [5] is “does not highlight any significant weight loss”. The “relative stability of the solid forms” value in data set [1] (conclusion from the competitive slurries in all solvents) is listed as “most stable form at room temperature”. Moreover, the “maximum uptake (weight variation) in DVS” value in data set [6] was “+0.1%”.
